# Results taken from the supplement of paper PMC10307832.
# Tests used:
# Assay in all cases: relative viability (nuclei count vs DMSO), 5 days (fraction); higher = more cells survive
# IU1-47 + Pemetrexed = compound: CC1=CC(=C(N1C2=CC=C(C=C2)Cl)C)C(=O)CN3CCCCC3 [IU1-47] + Nc1nc2[nH]cc(CCc3ccc(C(=O)N[C@@H](CCC(=O)O)C(=O)O)cc3)c2c(=O)[nH]1 [Pemetrexed] (partner 0.2 µM)
# Method in brief: (§1)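 Lung cancer cell lines, seeded in 1536-well plates, were treated the following day by pin tool with a single drug or with five library-drug doses (not always all listed) in √10 steps on top of a fixed anchor-drug dose. Cells were fixed and nuclei stained in one step after 5 days, and nuclei were counted. Relative viability is the nuclei count for treated wells divided by that for vehicle wells, reported as medians of duplicate plates.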
# FG-4592 + Lapatinib = compound: Cc1nc(C(=O)NCC(=O)O)c(O)c2ccc(Oc3ccccc3)cc12 [FG-4592] + CS(=O)(=O)CCNCc1ccc(-c2ccc3ncnc(Nc4ccc(OCc5cccc(F)c5)c(Cl)c4)c3c2)o1 [Lapatinib] (partner 2 µM)
# Method in brief: as §1
# IU1-47 + Dasatinib = compound: CC1=CC(=C(N1C2=CC=C(C=C2)Cl)C)C(=O)CN3CCCCC3 [IU1-47] + Cc1nc(Nc2ncc(C(=O)Nc3c(C)cccc3Cl)s2)cc(N2CCN(CCO)CC2)n1 [Dasatinib] (partner 0.075 µM)
# Method in brief: as §1
# IU1-47 + Linsitinib = compound: CC1=CC(=C(N1C2=CC=C(C=C2)Cl)C)C(=O)CN3CCCCC3 [IU1-47] + C[C@]1(O)C[C@@H](c2nc(-c3ccc4ccc(-c5ccccc5)nc4c3)c3c(N)nccn32)C1 [Linsitinib] (partner 1 µM)
# Method in brief: as §1
Cell Line,relative viability (IU1-47 + Pemetrexed; first compound 0.08 µM),relative viability (IU1-47 + Pemetrexed; first compound 0.253 µM),relative viability (IU1-47 + Pemetrexed; first compound 0.8 µM),relative viability (IU1-47 + Pemetrexed; first compound 2.53 µM),relative viability (IU1-47 + Pemetrexed; first compound 8 µM),relative viability (FG-4592 + Lapatinib; first compound 0.08 µM),relative viability (FG-4592 + Lapatinib; first compound 0.253 µM),relative viability (FG-4592 + Lapatinib; first compound 0.8 µM),relative viability (FG-4592 + Lapatinib; first compound 2.53 µM),relative viability (FG-4592 + Lapatinib; first compound 8 µM),relative viability (IU1-47 + Dasatinib; first compound 0.08 µM),relative viability (IU1-47 + Dasatinib; first compound 0.253 µM),relative viability (IU1-47 + Dasatinib; first compound 0.8 µM),relative viability (IU1-47 + Dasatinib; first compound 8 µM),relative viability (IU1-47 + Linsitinib; first compound 0.08 µM),relative viability (IU1-47 + Linsitinib; first compound 0.253 µM),relative viability (IU1-47 + Linsitinib; first compound 0.8 µM),relative viability (IU1-47 + Linsitinib; first compound 2.53 µM),relative viability (IU1-47 + Linsitinib; first compound 8 µM),relative viability (IU1-47 + Dasatinib; first compound 2.53 µM)
NCI-H2126,0.69,0.741,0.704,0.49,0.733,0.672,0.708,0.604,0.613,0.589,0.596,0.717,0.724,0.601,0.733,0.76,0.74,0.531,0.778,–
NCI-H3122,0.197,0.206,0.204,0.218,0.205,1.1,0.989,1.03,1.08,1.1,–,0.816,0.854,1.01,1,1.07,1.08,1.15,1.01,0.892
NCI-H1975,0.278,0.289,0.297,0.299,0.255,0.801,0.788,0.831,0.759,0.697,0.329,0.343,0.372,0.361,1.06,1.17,1.11,0.98,0.752,0.318
NCI-H1944,0.652,0.778,0.751,0.734,0.58,0.712,0.759,0.576,0.71,0.768,0.213,0.214,0.204,0.203,1.23,1.2,1.13,–,1.1,0.2
LU99A,0.178,0.227,0.155,0.187,0.191,0.964,0.93,0.801,0.96,0.83,0.756,0.499,0.457,0.462,0.538,0.511,0.656,0.602,0.54,0.659
SW 1573,0.935,0.912,0.766,0.657,0.749,1.05,1.12,1.11,1.11,1.22,0.498,0.524,0.584,0.577,0.942,0.674,0.694,0.746,0.843,0.551
NCI-H2347,0.436,0.39,0.447,0.395,0.419,0.906,–,0.848,0.917,0.974,0.307,0.307,0.318,0.342,1.06,0.997,0.973,0.946,0.954,0.285
NCI-H2009,1.1,1.05,1.01,1.08,1.05,1.02,0.878,0.888,0.735,0.924,0.257,0.263,0.293,0.241,1.19,1.19,1.13,1.24,1.24,0.231
HCC-44,0.706,0.685,0.647,0.668,0.696,0.99,0.948,0.835,0.96,0.96,–,–,–,–,0.668,0.662,0.649,0.664,0.572,–
NCI-H1299,–,–,–,–,–,0.969,0.941,0.981,0.954,0.988,–,–,–,–,0.943,0.951,1.05,1.01,0.975,–
NCI-H727,–,–,–,–,–,0.632,0.809,0.742,0.754,0.863,0.396,0.398,0.362,0.442,0.315,–,0.274,0.221,0.269,0.289
LCLC-103H,0.474,0.464,0.469,0.449,0.519,–,–,–,–,–,0.49,0.471,0.491,0.345,1.07,1.07,1.18,1.07,1.3,0.465
ABC-1,–,–,–,–,–,1.11,1.11,1.06,1.08,0.801,0.696,0.603,0.615,0.542,0.887,0.768,0.986,–,0.777,–
NCI-H1650,0.419,0.338,0.335,0.36,0.294,0.637,0.704,0.544,0.677,0.78,0.269,0.311,0.283,0.27,–,–,–,–,–,0.292
ChaGo-K-1,0.26,0.257,0.282,0.249,0.268,–,–,–,–,–,0.524,0.557,0.707,0.544,–,–,–,–,–,0.643
NCI-H1648,0.776,0.888,1.01,0.644,0.494,–,–,–,–,–,–,–,–,–,–,–,–,–,–,–
A549,–,–,–,–,–,0.917,0.975,1.03,1.07,0.946,–,–,–,–,0.548,0.691,0.608,–,0.553,–
NCI-H522,0.923,0.975,1.02,0.735,0.958,–,–,–,–,–,0.807,0.872,0.748,0.907,–,–,–,–,–,0.759
NCI-H2170,0.28,0.362,0.278,0.264,0.258,0.263,0.244,0.242,0.277,0.256,0.601,0.737,0.558,0.497,–,–,–,–,–,0.526
NCI-H1623,–,–,–,–,–,–,–,–,–,–,0.588,0.571,0.588,0.555,–,–,–,–,–,0.591
SW 900,0.478,–,0.495,0.472,0.383,–,–,–,–,–,0.664,0.529,0.7,0.742,–,–,–,–,–,0.556
IA-LM,–,–,–,–,–,0.675,0.78,0.66,0.711,0.567,–,–,–,–,0.526,0.407,0.655,0.741,0.604,–
EBC-1,–,–,–,–,–,0.24,0.25,0.206,0.201,0.232,–,–,–,–,0.664,0.888,0.925,0.964,0.881,–
